Test results: article PMC6155728, “Design, Synthesis and Evaluation of Indene Derivatives as Retinoic Acid Receptor α Agonists” (Molecules : A Journal of Synthetic Chemistry and Natural …, 2016)
“And” between values parts separate entries of the source, which are not always exact repeats. Equal values may be shown once. Read-outs that look alike come from different tables or passages of the source.

Assays:
HL60 cells [1] = experiment: Inhibition of cell proliferation assay (SRB), HL60; assay type: cell-based; conditions: Homo sapiens, read-out: IC50 cell proliferation HL60
Experimental: (§1) Human promyelocytic leukemia cell lines HL60 and NB4 were employed to determine the effects of the derivatives on cell proliferation. […] Alkoxy-substitution at the 2-position (i.e., compounds 36f, 36g) harmed the cell proliferation inhibitory activity of the compounds in both cell lines while the isopropyl group at the same position (compound 36h) is favourable. The extension of the π system by an alkenyl bond or a ketone group, as in 36j–l, didn’t affect the compounds’ inhibitory activity in HL60 cells but nulified their activity in NB4 cells. The indene ring tolerates the dual-introduction of a small alkoxyl and an alkyl group at 1- and 2-position, respectively, to retain the antiproliferative activity in HL60 cells.
(§2) Cells were seeded in 96-well plates (Corning Inc.) with a density of 2500 cells (NB4 or HL60) per well for overnight. Then, cells were exposed to each of the test compounds 36a–36p in gradient concentration of 10^−9, 10^−8, 10^−7, 10^−6, 10^−5 mol/L. Control cultures were treated with the same volume of DMSO. After 72 hours of incubation, the cell density in each well were fixed by trichloroacetic acid and then measured using the SRB (sulforhodamine B) method. After rinsing, the SRB was solubilized in TrisHCl, and the optical density of each culture was determined with a Bio-Tek Elx 800 absorbance microplate reader (BioTek, Shoreline, WA, USA). The OD of the treated cultures was divided by that of the control cultures treated with solvent alone.

NB4 cells [2] = experiment: Inhibition of cell proliferation assay (SRB), NB4; assay type: cell-based, human; conditions: read-out: IC50 cell proliferation NB4
Experimental: as §1, §2

HL60 cells [3] = experiment: Cell differentiation assay (CD11b, FACS), HL60; assay type: cell-based, human
Experimental: (§3) The effects of 36a–g on the differentiation of HL60 and NB4 cells were then assessed.
(§4) Cells (1 × 10^6/mL) were treated with compounds at different concentrations based on IC50 in Table 2 […]. After the treatment, cells were washed twice with PBS and then fixed with 75% alcohol overnight at −20 °C. The fixed cells were washed with PBS and blocked with 95 μL 3% BSA in PBS for 45 min at room temperature. The cells were incubated with 5 μL CD11b-PE at 4 °C for 45 min with protection from light. The antigens were then determined by a FACSCalibur flow cytometer (BD Biosciences Pharmingen, San Diego, CA, USA). The percentages of positive cells were quantitated using CellQuest Pro software. Cells stained with mouse IgG-PE served as negative controls. Both CD11b-PE and mouse IgG-PE antibodies were purchased from BD Biosciences. At least 10,000 cells were analyzed for each data point.

NB4 cells [4] = experiment: Cell differentiation assay (CD11b, FACS), NB4; assay type: cell-based, human
Experimental: as §3, §4

RARα (RAR alpha LBD-GST) = target: T1, RARα (RAR alpha LBD-GST) (Homo sapiens, UniProt P10276); experiment: Receptor binding assay (LanthaScreen TR-FRET RAR alpha Coactivator Assay); conditions: 1 h incubation, AM80 positive control, read-out: RARα binding affinity EC50
T1 construct: A mixture of 5 nM RAR alpha LBD-GST, 5 nM TbAnti-GST antibody, 50 nM Fluorescein-D22 was added to the wells; purchased Invitrogen
T1 sequence (P10276 183-417 limits assumed): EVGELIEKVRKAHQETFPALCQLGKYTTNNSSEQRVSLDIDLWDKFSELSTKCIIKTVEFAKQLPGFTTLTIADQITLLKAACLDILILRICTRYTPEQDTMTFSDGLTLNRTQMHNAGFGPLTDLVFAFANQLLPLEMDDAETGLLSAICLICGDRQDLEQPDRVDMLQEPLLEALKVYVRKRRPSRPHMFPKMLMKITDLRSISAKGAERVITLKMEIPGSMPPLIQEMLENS
Experimental: The obtained target compounds were tested for their binding affinities to RARα using a time resolved fluorescence resonance energy transfer (TR-FRET) assay with AM80 as the positive control.
All synthesized compounds were tested for their binding affinity by using time resolved fluorescence resonance energy transfer (TR-FRET) assay, which used a LanthaScreen® TR-FRET RAR alpha Coactivator Assay Kit (Invitrogen, Carlsbad, CA, USA). Briefly, all experiments were performed in black 384-well low-volume plates (Corning Inc., Corning, NY, USA) in dark at room temperature. The final assay volume was 20 μL. All dilutions were made in assay buffer (TR-FRET Coregulator Buffer D). The final DMSO concentration was 1%. A mixture of 5 nM RAR alpha LBD-GST, 5 nM TbAnti-GST antibody, 50 nM Fluorescein-D22 was added to the wells. The only variable is the agonist concentration (6.1 × 10^−11~1.0 × 10^−6 M final concentrations of each retinoid). […] Data were analyzed by using GraphPad Prism software (GraphPad Software, Inc., La Jolla, CA, USA) and FRET signal was determined for all treatments by dividing 520 nm/495 nm signals. Graphs plotted as fold change of FRET signal for compounds treatment over DMSO only treatment.

[5] = HL-60, HL60 cells, 72 hours, SRB
[6] = Homo sapiens, NB-4, 72 h, NB4 cells, 72 hours, SRB

## CC1(C)CCC(C)(C)c2cc(NC(=O)c3ccc(C(=O)O)cc3)ccc21 [AM80, reference compound]
HL60 cells [1]; HL-60, 72 h
  IC50: 170 nM
NB4 cells [2]; Homo sapiens, NB-4, 72 h
  IC50: 13300 nM
HL60 cells [3]; 10 μM
  CD11b (%) HL60: 4.59 (10 μM) %
NB4 cells [4]; 10 μM
  CD11b (%) NB4: 94.93 (10 μM) %

## O=C(O)c1ccc(C(=O)Nc2ccc3c(c2)CCC3)cc1 [Compound 36a, 4-((2,3-Dihydro-1H-inden-5-yl)carbamoyl)benzoic acid]
RARα (RAR alpha LBD-GST)
  EC50: 12.1 nM
other
  melting point: > 250 °C
HL60 cells [1]; [5]
  IC50: > 50000 nM
NB4 cells [2]; [6]
  IC50: 6970 nM
HL60 cells [3]; 50 μM
  CD11b (%) HL60: 1.13 (50 μM) %
NB4 cells [4]; 5 μM
  CD11b (%) NB4: 0.97 (5 μM) %

## COC1CCc2ccc(NC(=O)c3ccc(C(=O)O)cc3)cc21 (stereo not drawn) [Compound 36b, 4-((3-Methoxy-2,3-dihydro-1H-inden-5-yl)carbamoyl)benzoic acid]
RARα (RAR alpha LBD-GST)
  EC50: 130 nM
other
  melting point: > 250 °C
HL60 cells [1]; [5]
  IC50: 130 nM
NB4 cells [2]; [6]
  IC50: 35400 nM

## CCOC1CCc2ccc(NC(=O)c3ccc(C(=O)O)cc3)cc21 (stereo not drawn) [Compound 36c]
other
  melting point: > 250 °C

## CC(C)OC1CCc2ccc(NC(=O)c3ccc(C(=O)O)cc3)cc21 (stereo not drawn) [Compound 36d, 4-((3-Isopropoxy-2,3-dihydro-1H-inden-5-yl)carbamoyl)benzoic acid]
RARα (RAR alpha LBD-GST)
  EC50: 24.2 nM
other
  melting point: > 250 °C
HL60 cells [1]; [5]
  IC50: > 50000 nM
NB4 cells [2]; [6]
  IC50: 1860 to 4090 nM
NB4 cells [2]; NB4 cells, 72 hours, SRB
  IC50: 1860 nM
HL60 cells [3]; 50 μM
  CD11b (%) HL60: 3.77 (50 μM) %
NB4 cells [4]; 5 μM
  CD11b (%) NB4: 68.88% and 68.88 (5 μM) %

## CCCCOC1CCc2ccc(NC(=O)c3ccc(C(=O)O)cc3)cc21 (stereo not drawn) [Compound 36e, 4-((3-Butoxy-2,3-dihydro-1H-inden-5-yl)carbamoyl)benzoic acid]
RARα (RAR alpha LBD-GST)
  EC50: 14.9 nM
other
  melting point: > 250 °C
HL60 cells [1]; [5]
  IC50: > 50000 nM
HL60 cells [3]; 50 μM
  CD11b (%) HL60: 2.87 (50 μM) %
NB4 cells [4]; 5 μM
  CD11b (%) NB4: 15.42 (5 μM) %

## COC1Cc2ccc(NC(=O)c3ccc(C(=O)O)cc3)cc2C1 (stereo not drawn) [Compound 36f, 4-((2-Methoxy-2,3-dihydro-1H-inden-5-yl)carbamoyl)benzoic acid]
RARα (RAR alpha LBD-GST)
  EC50: > 1000 nM
other
  melting point: > 250 °C
HL60 cells [1]; [5]
  IC50: > 50000 nM
NB4 cells [2]; [6]
  IC50: > 50000 nM

## CCOC1Cc2ccc(NC(=O)c3ccc(C(=O)O)cc3)cc2C1 (stereo not drawn) [Compound 36g, 4-((2-Ethoxy-2,3-dihydro-1H-inden-5-yl)carbamoyl)benzoic acid]
RARα (RAR alpha LBD-GST)
  EC50: > 1000 nM
other
  melting point: > 250 °C
HL60 cells [1]; [5]
  IC50: > 50000 nM
NB4 cells [2]; [6]
  IC50: 22000 nM
HL60 cells [3]; 50 μM
  CD11b (%) HL60: 5.82 (50 μM) %
NB4 cells [4]; 20 μM
  CD11b (%) NB4: 0.49 (20 μM) %

## CC(C)C1Cc2ccc(NC(=O)c3ccc(C(=O)O)cc3)cc2C1 (stereo not drawn) [Compound 36h, 4-((2-Isopropyl-2,3-dihydro-1H-inden-5-yl)carbamoyl)benzoic acid]
RARα (RAR alpha LBD-GST)
  EC50: 43 nM
other
  melting point: > 250 °C
HL60 cells [1]; [5]
  IC50: 910 nM
NB4 cells [2]; [6]
  IC50: 2610 nM

## CC1=Cc2cc(NC(=O)c3ccc(C(=O)O)cc3)ccc2C1 [Compound 36i, 4-((2-Methyl-1H-inden-5-yl)carbamoyl)benzoic acid]
RARα (RAR alpha LBD-GST)
  EC50: 14.1 nM
other
  melting point: > 250 °C
HL60 cells [1]; [5]
  IC50: > 50000 nM
NB4 cells [2]; [6]
  IC50: > 50000 nM

## CC(C)C1=Cc2cc(NC(=O)c3ccc(C(=O)O)cc3)ccc2C1 [Compound 36j, 4-((2-Isopropyl-1H-inden-5-yl)carbamoyl)benzoic acid]
RARα (RAR alpha LBD-GST)
  EC50: 3.53 nM
other
  melting point: > 250 °C
HL60 cells [1]; [5]
  IC50: 2370 nM
NB4 cells [2]; [6]
  IC50: > 50000 nM

## CC1Cc2ccc(NC(=O)c3ccc(C(=O)O)cc3)cc2C1=O (stereo not drawn) [Compound 36k, 4-((2-Methyl-3-oxo-2,3-dihydro-1H-inden-5-yl)carbamoyl)benzoic acid]
other
  melting point: > 250 °C
HL60 cells [1]; [5]
  IC50: 2660 nM
NB4 cells [2]; [6]
  IC50: > 50000 nM

## CC(C)C1Cc2ccc(NC(=O)c3ccc(C(=O)O)cc3)cc2C1=O (stereo not drawn) [Compound 36l, 4-((2-Isopropyl-3-oxo-2,3-dihydro-1H-inden-5-yl)carbamoyl)benzoic acid]
RARα (RAR alpha LBD-GST)
  EC50: 4.68 nM
other
  melting point: > 250 °C
HL60 cells [1]; [5]
  IC50: 2110 nM
NB4 cells [2]; [6]
  IC50: 36900 nM

## COC1c2cc(NC(=O)c3ccc(C(=O)O)cc3)ccc2CC1C (stereo not drawn) [Compound 36m, 4-((3-Methoxy-2-methyl-2,3-dihydro-1H-inden-5-yl)carbamoyl)benzoic acid]
RARα (RAR alpha LBD-GST)
  EC50: 292 nM
other
  melting point: > 250 °C
HL60 cells [1]; [5]
  IC50: 430 nM
NB4 cells [2]; [6]
  IC50: > 50000 nM

## CCOC1c2cc(NC(=O)c3ccc(C(=O)O)cc3)ccc2CC1C (stereo not drawn) [Compound 36n, 4-((3-Ethoxy-2-methyl-2,3-dihydro-1H-inden-5-yl)carbamoyl)benzoic acid]
RARα (RAR alpha LBD-GST)
  EC50: 146 nM
other
  melting point: > 250 °C
HL60 cells [1]; [5]
  IC50: 800 nM
NB4 cells [2]; [6]
  IC50: 8510 nM

## COC1c2cc(NC(=O)c3ccc(C(=O)O)cc3)ccc2CC1C(C)C (stereo not drawn) [Compound 36o, 4-((2-Isopropyl-3-methoxy-2,3-dihydro-1H-inden-5-yl)carbamoyl)benzoic acid]
RARα (RAR alpha LBD-GST)
  EC50: 3.93 nM
other
  melting point: > 250 °C
HL60 cells [1]; [5]
  IC50: 2350 nM
NB4 cells [2]; [6]
  IC50: > 50000 nM

## CCOC1c2cc(NC(=O)c3ccc(C(=O)O)cc3)ccc2CC1C(C)C (stereo not drawn) [Compound 36p, 4-((3-Ethoxy-2-isopropyl-2,3-dihydro-1H-inden-5-yl)carbamoyl)benzoic acid]
RARα (RAR alpha LBD-GST)
  EC50: 9.03 nM
other
  melting point: > 250 °C
HL60 cells [1]; [5]
  IC50: 1130 nM
NB4 cells [2]; [6]
  IC50: 7560 nM
